Measurements published in US12077503B2, “Substituted cyclic amides and their use as herbicides” (FMC CORPORATION, priority 2015, dated 2024).

Key:
Type in all cases: in vivo
[1] = system: sedge, umbrella (small-flower umbrella sedge, Cyperus difformis); assay: Test B flooded paddy test; settings: Flood, 250 g ai/ha; 0 to 100 scale where 0 is no effect and 100 is complete control; 13 to 15 d
Summary of the method: (§1)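 Rating scale 0–100 (visual, vs untreated controls) after a 13–15 d greenhouse period; application to the flood layer, 3 cm above soil and maintained; plants at 2-leaf stage when treated.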

[2] = system: barnyardgrass (Echinochloa crus-galli); assay: Test B flooded paddy test; settings: Flood, 250 g ai/ha; 0 to 100 scale where 0 is no effect and 100 is complete control; 13 to 15 d
Summary of the method: as §1

rice (Oryra sativa) = assay: Test B flooded paddy test; settings: Flood, 250 g ai/ha; 0 to 100 scale where 0 is no effect and 100 is complete control; 13 to 15 d
Summary of the method: as §1

[3] = system: ducksalad (Heteranthera limosa); assay: Test B flooded paddy test; settings: Flood, 250 g ai/ha; 0 to 100 scale where 0 is no effect and 100 is complete control; 13 to 15 d
Summary of the method: as §1

[4] = system: barnyardgrass (Echinochloa crus-galli); assay: Test A postemergence; settings: for Barnyardgrass plant response rating: 125 g ai/ha, postemergence, visual injury rating on 0 to 100 scale (0 no effect, 100 complete control), approx. 10 d; for Plant response rating, Barnyardgrass: Postemergence, 500 g ai/ha, 0 to 100 scale where 0 is no effect and 100 is complete control
Summary of the method: (§2)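 Each rating is a visual injury score from 0 to 100 given about 10 d after treatment, judged against untreated controls kept alongside in the greenhouse. In loam soil–sand blend, seeds got a preemergence directed soil spray, while postemergence plants were 2 to 10 cm tall at spraying.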

corn (Zea mays) = assay: Test A postemergence; settings: for Corn plant response rating: 125 g ai/ha, postemergence, visual injury rating on 0 to 100 scale (0 no effect, 100 complete control), approx. 10 d; for Plant response rating, Corn: Postemergence, 500 g ai/ha, 0 to 100 scale where 0 is no effect and 100 is complete control
Summary of the method: as §2

[5] = system: ryegrass, Italian (Italian ryegrass, Lolium multiflorum); assay: Test A postemergence; settings: for Ryegrass, Italian plant response rating: 125 g ai/ha, postemergence, visual injury rating on 0 to 100 scale (0 no effect, 100 complete control), approx. 10 d; for Plant response rating, Ryegrass, Italian: Postemergence, 500 g ai/ha, 0 to 100 scale where 0 is no effect and 100 is complete control
Summary of the method: as §2

[6] = system: Galium (catchweed bedstraw, Galium aparine); assay: Test A postemergence; settings: for Galium plant response rating: 125 g ai/ha, postemergence, visual injury rating on 0 to 100 scale (0 no effect, 100 complete control), approx. 10 d; for Plant response rating, Galium: Postemergence, 500 g ai/ha, 0 to 100 scale where 0 is no effect and 100 is complete control
Summary of the method: as §2

[7] = system: giant foxtail (Setaria faberii); assay: Test A postemergence; settings: for Foxtail, Giant plant response rating: 125 g ai/ha, postemergence, visual injury rating on 0 to 100 scale (0 no effect, 100 complete control), approx. 10 d; for Plant response rating, Foxtail, Giant: Postemergence, 500 g ai/ha, 0 to 100 scale where 0 is no effect and 100 is complete control
Summary of the method: as §2

[8] = system: pigweed (Amaranthus retroflexus); assay: Test A postemergence; settings: for Pigweed plant response rating: 125 g ai/ha, postemergence, visual injury rating on 0 to 100 scale (0 no effect, 100 complete control), approx. 10 d; for Plant response rating, Pigweed: Postemergence, 500 g ai/ha, 0 to 100 scale where 0 is no effect and 100 is complete control
Summary of the method: as §2

Kochia (Kochia scoparia) [9] = assay: Test A postemergence; settings: for Kochia plant response rating: 125 g ai/ha, postemergence, visual injury rating on 0 to 100 scale (0 no effect, 100 complete control), approx. 10 d; for Plant response rating, Kochia: Postemergence, 500 g ai/ha, 0 to 100 scale where 0 is no effect and 100 is complete control
Summary of the method: as §2

[10] = system: wheat (Triticum aestivum); assay: Test A postemergence; settings: for Wheat plant response rating: 125 g ai/ha, postemergence, visual injury rating on 0 to 100 scale (0 no effect, 100 complete control), approx. 10 d; for Plant response rating, Wheat: Postemergence, 500 g ai/ha, 0 to 100 scale where 0 is no effect and 100 is complete control
Summary of the method: as §2

[11] = system: ragweed (common ragweed, Ambrosia elatior); assay: Test A postemergence; settings: for Ragweed plant response rating: 125 g ai/ha, postemergence, visual injury rating on 0 to 100 scale (0 no effect, 100 complete control), approx. 10 d; for Plant response rating, Ragweed: Postemergence, 500 g ai/ha, 0 to 100 scale where 0 is no effect and 100 is complete control
Summary of the method: as §2

[12] = system: blackgrass (Alopecurus myosuroides); assay: Test A postemergence; settings: for Blackgrass plant response rating: 125 g ai/ha, postemergence, visual injury rating on 0 to 100 scale (0 no effect, 100 complete control), approx. 10 d; for Plant response rating, Blackgrass: Postemergence, 500 g ai/ha, 0 to 100 scale where 0 is no effect and 100 is complete control
Summary of the method: as §2

[13] = system: barnyardgrass (Echinochloa crus-galli); assay: Test A preemergence; settings: Preemergence; for Plant response rating, Barnyardgrass: 125 g ai/ha, visual injury after approximately 10 d, 0 to 100 scale where 0 is no effect and 100 is complete control; for Barnyardgrass plant response rating (0 to 100 scale, 0 is no effect, 100 is complete control): 500 g ai/ha, visual injury approx. 10 d
Summary of the method: as §2

[14] = system: ryegrass, Italian (Italian ryegrass, Lolium multiflorum); assay: Test A preemergence; settings: Preemergence; for Plant response rating, Ryegrass, Italian: 125 g ai/ha, visual injury after approximately 10 d, 0 to 100 scale where 0 is no effect and 100 is complete control; for Ryegrass, Italian plant response rating (0 to 100 scale, 0 is no effect, 100 is complete control): 500 g ai/ha, visual injury approx. 10 d
Summary of the method: as §2

[15] = system: giant foxtail (Setaria faberii); assay: Test A preemergence; settings: Preemergence; for Plant response rating, Foxtail, Giant: 125 g ai/ha, visual injury after approximately 10 d, 0 to 100 scale where 0 is no effect and 100 is complete control; for Foxtail, Giant plant response rating (0 to 100 scale, 0 is no effect, 100 is complete control): 500 g ai/ha, visual injury approx. 10 d
Summary of the method: as §2

[16] = system: pigweed (Amaranthus retroflexus); assay: Test A preemergence; settings: Preemergence; for Plant response rating, Pigweed: 125 g ai/ha, visual injury after approximately 10 d, 0 to 100 scale where 0 is no effect and 100 is complete control; for Pigweed plant response rating (0 to 100 scale, 0 is no effect, 100 is complete control): 500 g ai/ha, visual injury approx. 10 d
Kochia (Kochia scoparia) [17] = assay: Test A preemergence; settings: Preemergence; for Plant response rating, Kochia: 125 g ai/ha, visual injury after approximately 10 d, 0 to 100 scale where 0 is no effect and 100 is complete control; for Kochia plant response rating (0 to 100 scale, 0 is no effect, 100 is complete control): 500 g ai/ha, visual injury approx. 10 d
Summary of the method: as §2

[18] = system: ragweed (common ragweed, Ambrosia elatior); assay: Test A preemergence; settings: Preemergence; for Plant response rating, Ragweed: 125 g ai/ha, visual injury after approximately 10 d, 0 to 100 scale where 0 is no effect and 100 is complete control; for Ragweed plant response rating (0 to 100 scale, 0 is no effect, 100 is complete control): 500 g ai/ha, visual injury approx. 10 d
Summary of the method: as §2

SMILES | Plant response rating, Sedge, Umbrella [1] | Plant response rating, Barnyardgrass [2] | Plant response rating, Rice (rice (Oryra sativa)) | Plant response rating, Ducksalad [3] | Barnyardgrass plant response rating [4] | Plant response rating, Barnyardgrass [4] | Corn plant response rating (corn (Zea mays)) | Plant response rating, Corn (corn (Zea mays)) | Ryegrass, Italian plant response rating [5] | Plant response rating, Ryegrass, Italian [5] | Galium plant response rating [6] | Plant response rating, Galium [6] | Foxtail, Giant plant response rating [7] | Plant response rating, Foxtail, Giant [7] | Pigweed plant response rating [8] | Plant response rating, Pigweed [8] | Kochia plant response rating (Kochia (Kochia scoparia) [9]) | Plant response rating, Kochia (Kochia (Kochia scoparia) [9]) | Wheat plant response rating [10] | Plant response rating, Wheat [10] | other results
O=C(Nc1cccc(F)c1F)C1C(=O)N(CC=CBr)CC1c1cccc(C(F)(F)F)c1 (stereo not drawn) [Compound 486] | 0 | 0 | 0 | 0 | 0 | 40 | 0 | 0 | 0 | 0 | 0 | 20 | 0 | 50 | 0 | 40 | 0 | 0 | 0 | 0 | Ragweed plant response rating [11]: 0; Plant response rating, Ragweed [11]: 0; Blackgrass plant response rating [12]: 0; Plant response rating, Blackgrass [12]: 0; Plant response rating, Barnyardgrass [13]: 30; Barnyardgrass plant response rating (0 to 100 scale, 0 is no effect, 100 is complete control) [13]: 70; Plant response rating, Ryegrass, Italian [14]: 0; Ryegrass, Italian plant response rating (0 to 100 scale, 0 is no effect, 100 is complete control) [14]: 20; Plant response rating, Foxtail, Giant [15]: 60; Foxtail, Giant plant response rating (0 to 100 scale, 0 is no effect, 100 is complete control) [15]: 90; Plant response rating, Pigweed [16]: 0; Pigweed plant response rating (0 to 100 scale, 0 is no effect, 100 is complete control) [16]: 20; Plant response rating, Kochia (Kochia (Kochia scoparia) [17]): 0; Kochia plant response rating (0 to 100 scale, 0 is no effect, 100 is complete control) (Kochia (Kochia scoparia) [17]): 0; Plant response rating, Ragweed [18]: 0; Ragweed plant response rating (0 to 100 scale, 0 is no effect, 100 is complete control) [18]: 0
O=C1NCC(c2cccc(F)c2F)C1C(=O)Nc1ccccc1F (stereo not drawn) [Compound 494] | 0 | 20 | 0 | 30 | 30 | 80 | 0 | 0 | 0 | 0 | 0 | 0 | 20 | 60 | 0 | 0 | 0 | 0 | 0 | 0 | Ragweed plant response rating [11]: 0; Plant response rating, Ragweed [11]: 0; Blackgrass plant response rating [12]: 0; Plant response rating, Blackgrass [12]: 0; Plant response rating, Barnyardgrass [13]: 70; Barnyardgrass plant response rating (0 to 100 scale, 0 is no effect, 100 is complete control) [13]: 90; Plant response rating, Ryegrass, Italian [14]: 0; Ryegrass, Italian plant response rating (0 to 100 scale, 0 is no effect, 100 is complete control) [14]: 0; Plant response rating, Foxtail, Giant [15]: 80; Foxtail, Giant plant response rating (0 to 100 scale, 0 is no effect, 100 is complete control) [15]: 90; Plant response rating, Pigweed [16]: 0; Pigweed plant response rating (0 to 100 scale, 0 is no effect, 100 is complete control) [16]: 0; Plant response rating, Kochia (Kochia (Kochia scoparia) [17]): 0; Kochia plant response rating (0 to 100 scale, 0 is no effect, 100 is complete control) (Kochia (Kochia scoparia) [17]): 0; Plant response rating, Ragweed [18]: 0; Ragweed plant response rating (0 to 100 scale, 0 is no effect, 100 is complete control) [18]: 0
